According to paper PMC10791743, “Selective CK1α degraders exert antiproliferative activity against a broad range of human cancer cell lines” (Nature Communications, 2024):

Tests used:
Assay type in all cases: in vitro ADME
[1] = Metabolic stability in cryopreserved hepatocytes, mouse; settings: 1 μM; for Remaining: Pooled Mouse Hepatocytes
Procedure: (§1) page 34: UHPLC-MS/MS System: Chromatographic separation was performed on an Acquity UPLC BEH […] with 6500+ Qtrap system. […] software suite. The UPLC column was maintained at 55 °C. Mobile phase A was 0.1% formic acid in MilliQ H2O and Mobile phase B was 0.1% formic acid in acetonitrile. The flow rate was 0.9 […] The mass spectrometer was operated in positive-ion mode with electrospray ionization. MRM transition m/z […] plasma stability and plasma protein binding. The following MS parameters were employed for analyte measurements: ion spray voltage 5 kV, temperature 550 °C, gas 1 and gas 2 were 60, entrance potential (EP): 10 V, declustering potential (DP): 50 V, collision energy (CE): 27 V, and collision cell exit potential (CXP): 16 V. Metabolic Stability in mouse and human cryopreserved hepatocytes. 10 mM test compounds were provided by Compound Sample Group. Diluted 10 mM test compounds and 30 mM positive control compounds (7-ethoxycoumarin) to 1 mM and 3 mM with DMSO in 96-well plates. Diluted 1 mM test compounds and 3 mM positive control compounds to 100 μM and 300 μM dosing solutions with ACN. Cryopreserved cells were thawed, isolated and suspended in Incubation Medium, then diluted with pre-warmed Incubation Medium to 0.5 × 10^6cells/mL. Added 198 μL of pre-warmed cell suspensions in 96 -well plates. Transferred 125 μL of stop solution (acetonitrile containing 200 ng/mL tolbutamide and 200 ng/mL labetalol as internal standards) in a set of pre- labeled 96-well plates. Spike d 2 μL dosing solution to each well of 96 -well plates in duplicates. For T0 Samples, mix ed to achieve a homogenous suspension for about 1 min, then immediately transferred 25 μL of each sample into well containing 125 μL of ice -cold stop solution followed by mixing. Incubated all plates at 37°C in a 95% humidified incubator at 5% CO 2 to start the reactions page 35: with constant shaking at about 600 rpm. At 15, 30, 60 and 90 min, mixed samples and then transferred 25 μL of each sample at each time point to well containing 125 μL of ice -cold stop solution followed by mixing. Medium Control (MC) sample plates (labeled as T0-MC and T90- MC) were prepared at T0 and T90 by adding the same components to each well except cell suspensions. At each corresponding time point, stopped the reactions by removing the plates from incubator and mixing with 125 μL of ice-cold stop solution. Vortexed the plates immediately on a plate shaker at 500 rpm for 10 minutes. Then, centrifuge d all sample plates at 3220 x g for 20 min at 4°C. After centrifugation, 80 μL/well of supernatant in the sample plates were transferred to another set of pre-labeled 96-well plates which containing 240 μL of ultra pure water according to the plate map. Analytical plates were sealed and stored at 4°C until LC-MS/MS analysis. Thawing Medium: Williams' Medium E containing 5% fetal bovine serum and 30% Perc oll solution and other supplements. Incubation Medium: Williams' Medium E (no phenol red) containing 2 mM L-Glutamine and 25 mM HEPES. Stop Solution: Acetonitrile containing 200 ng/mL tolbutamide and labetalol as internal standards. Dilution Solution: Ultra-pure water. The remaining percents of test articles after incubation were calculated by the follow equations: Equation ( 6): Use equation of first order kinetics [NT] […] The data was […] concatenated with a reversed decoy database for evaluating False Discovery Rate (FDR). […]

[2] = Metabolic stability in cryopreserved hepatocytes, human; settings: Pooled Human Hepatocytes, 1 μM
Procedure: as §1

[3] = Medium control without cells (hepatocyte stability assay); settings: 90 min, 1 μM

O=C1CCC(N2Cc3cc(Nc4noc5ccccc45)ccc3C2=O)C(=O)N1 (stereo not shown) [SJ001043149-3]
k ([1]; Pooled Mouse Hepatocytes (first result line, species inferred from Ln(Remaining))): 0.0013 min⁻¹ | Remaining ([1]; 15 min): 83.3% | Remaining ([1]; 30 min): 86.1% | Remaining ([1]; 60 min): 89.6% | Remaining ([1]; 90 min): 81.4% | Remaining ([2]; 15 min): 110.2% | Remaining ([2]; 30 min): 88.9% | Remaining ([2]; 60 min): 93.8% | Remaining ([2]; 90 min): 108.9% | Remaining [3]: 94.5%
